The source of these data is US9340840B2, “Use of selected lactic acid bacteria for reducing infantile colic” (Biogaia AB, priority 2006, dated 2016).

Data set [1] relates to Breast-fed infants with a diagnosis of infantile colic. Put plainly: Selected probiotic strains versus Simethicone in the treatment of infantile colic (crying time, 28 days). The following applies: for Crying time (mean minutes per day): N = 30 per group. It is filed as in vivo, human. The source says:
Breast-fed infants with a diagnosis of infantile colic are recruited in the Department of Pediatric and Adolescence Science (Drottning Silvias University Hospital, Goteborg). Patients aged 21-90 days, adequate for gestational age with a birth weight between 2500 and 4000 g, with colic symptoms satisfying the Wessel's criteria, and arisen almost 6±1 days before the enrollment, are considered for inclusion in the study (Wessel M A, Cobb J C, Jackson E B, Harris G S, Detwiler A C. Paroxismal fussing in infancy, sometimes called “colic”. Pediatrics 1954; 14: 421-35). All infants enrolled are exclusively breast-fed in order to reduce variability in the intestinal microflora due to variations in the diet, which may in turn have influenced the response to the probiotic. Infants are excluded if they had clinical evidence of chronic illness or gastrointestinal disorders or if they had received either antibiotics or probiotics in the week preceding recruitment.
In this study, colicky infants are randomized to receive the probiotic or Simethicone in the following treatments:
L. reuteri is administered at a dose of 10^8 colony forming units (CFU) in 5 drops of a commercially available MCT-oil (medium chain tri-glyceride oil) suspension 30 min after feeding, once a day for 28 days. MCT oils occur naturally, and the most abundant source is coconut oil. Most MCT oil is refined from coconut oil. MCT oil is a clear light colored liquid with no flavor and low viscosity. This oil suspension is stable for 21 months at 2-8° C. (as documented by the manufacturer, BioGaia AB, Stockholm, Sweden) (alternative source of MCT oil is Akomed R, by Karlshamns AB, Karlshamn, Sweden). During the study, parents are instructed to keep the product in the refrigerator when not in use. Simethicone (S) was given at a dose of 60 mg/day in 3 mL of a commercially available solution (Mylicon Infants Gas Relief Drops, J&J, 7050 Camp Hill Rd., Fort Washington, Pa., 19034-2210, USA) after feeding, twice a day for 28 days. At the enrollment, all mothers are asked to follow a cows' milk-free diet as reported: avoidance of milk, yogurt, fresh and strong cheese, cream, butter, biscuits. Adherence to the diet is monitored with a diet diary maintained for all the treatment period. At day 7, 14, 21 and 28 one of the researches examined the compliance to this diet.
The day on which the pediatrician saw the infant for the first time is defined as Day-1. On this occasion each infant underwent a medical examination and the parents were interviewed in order to obtain background data concerning type of delivery, birth weight and gestational age, family history of gastrointestinal disease and atopy. In particular, the last one is considered positive if the infants had one or more family members (mother, father and/or older sibling) with atopic eczema, allergic rhinitis or asthma. Moreover, any signs and symptoms of atopic disease during the study period were recorded. Parents were also invited to record data concerning daily average crying time and number of colic episodes on the day after the recruitment (Day 0). The doctor randomly assigned the child to any of the study groups. Administration of study products began on Day 1.
Parents are given written information about the study and are asked to record daily number of inconsolable crying episodes and their duration, stool consistency and frequency as well as any observed side effects (constipation, vomiting, cutaneous reactions, etc) starting from Day 0 up to Day 28, using a structured diary. In order to ensure that all the parents noted crying time in a uniform way and to ensure that the infants are given the medication correctly, one of the researchers is always available by phone to help parents.
Each patient is re-examined by the same pediatrician on Days 1, 7, 14, 21 and 28.

The test system of data set [2] is colicky symptoms in breast-fed infants. The following applies: within 7 days of treatment; cited from earlier work.

As for dimethylpolysiloxane [Simethicone], the “withdrawal because of any side effect related to the trial” value in data set [1] (28 days treatment, 30 infants per group) was “No babies are withdrawn because of any side effect”. Also, the “Crying time (mean minutes per day)” value in data set [1] (Day 0 (before administration), colicky infants) amounted to 205 minutes per day; in data set [1] (Day 1, colicky infants), 194 minutes per day; in data set [1] (Day 7, colicky infants), 172 minutes per day; in data set [1] (Day 14, colicky infants), 155 minutes per day; in data set [1] (Day 21, colicky infants), 148 minutes per day; in data set [1] (Day 28, colicky infants) it was 141 minutes per day. Besides, in data set [2], the “response rate to the treatment” value was 7%.
